This passage reports Michaelis-Menten constant results from patent US20190264255A1, “Competition Test of an Enzyme Substrate with Internal Compensation for Enzyme Activity” (TECHNISCHE UNIVERSITÄT DARMSTADT, priority 2016, published 2019).

The assay concerns the target Thrombin (Homo sapiens, UniProt P00734). Description: Thrombin cleavage of Z-Gly-Pro-Arg-p-phenylenediamine, photometric detection by oxidative coupling with a-naphthol. The assay is classed as biochemical. Particulars: pH 8; buffer as for fluorescence measurement + 2% Triton X100; substrate cleavage by thrombin. As to the method: Buffer, substrate and fibrinogen were placed in a 96-well microtiter plate. The enzyme was injected with the injector attached to the TECAN reader. The experimental conditions are set out in the following information. • Substrate conc. Z-Gly-Pro-Arg-aminomethylcoumarin 10 mM in DMSO • Substrate dil. Z-Gly-Pro-Arg-aminomethylcoumarin 1 mM in DMSO • Test buffer 50 mM Tris, 250 mM NaCl, 0.1% PEG6000, pH 8.0 • Haemocomplettan 100 mg/ml dist. water≅44 mg/ml of fibrinogen • Enzyme Solution 1 U/ml in 10 mM HEPES, 0.1% bovine serum albumin, pH 6.4 • Temperature 30 C
Thrombin also cleaves Z-Gly-Pro-Arg-p-phenylenediamine. The product could be detected by oxidative coupling with a-naphthol in the presence of hexacyanoferrate III. The result was a violet dye with Amax=565 nm. The Michaelis-Menten constant at pH 8 (buffer as for fluorescence measurement+2% Triton X100) was 6 μM.

Z-Gly-Pro-Arg-p-phenylenediamine: the Michaelis-Menten constant amounted to 6 µM.
